Data from article PMC8795738, “The Tarantula Venom Peptide Eo1a Binds to the Domain II S3-S4 Extracellular Loop of Voltage-Gated Sodium Channel NaV1.8 to Enhance Activation” (Frontiers in Pharmacology, 2022).
Where a SMILES comes first, the peptide text is derived from it. Bridges are numbered along the chain shown (N, C = ends).

What was measured:
WT mice = test: Spontaneous pain after intraplantar injection, WT littermate mice; format: in vivo, mouse; conditions: Eo1a intraplantar, mean ± SEM, n = 3–4 mice
Description: (§1) Adult male C57BL/6J mice aged 4–8 weeks were sourced from the Animal Resource Centre (Canning Vale, Western Australia). Adult male NaV1.8 knockouts ([Nassar et al., 2004]) (aged 8–11 weeks) and wild-type littermates were housed and tested at University College London. Animals were housed in groups of three or four per cage under 12-h light-dark cycles and were provided with standard rodent chow and water ad libitum. Ethical approval for experiments involving animals was obtained from The University of Queensland animal ethics committee (TRI/IMB/093/17, IMB/PACE/421/18) and the United Kingdom Home Office (project licence PPL 70/7382). All experiments were conducted in accordance with the International Association for the Study of Pain Guidelines for the Use of Animals in Research and the Australian Code of Practice for the Care and Use of Animals for Scientific Purposes, 8th edition (2013).
(§2) Eo1a (1 μM or 10 μM) was diluted in saline/0.1% BSA and administered by intraplantar injection to the left hind paw of mice in a volume of 40 μl under isoflurane (3%) anaesthesia, and spontaneous pain behaviours (licks, bites, shakes, and lifts of the hind paw) were counted by a blinded investigator for up to 40 min after the injection.

NaV1.8 KO mice = test: Spontaneous pain after intraplantar injection, NaV1.8 knockout mice; format: in vivo, mouse; conditions: Eo1a intraplantar, significantly reduced vs WT, *p < 0.05 unpaired t-test, mean ± SEM, n = 3–4 mice
Description: as §1, §2

[1] = tested on: NaV1.7 with DIV S1-S2 loop of NaV1.8; test: Voltage-dependence of activation, NaV1.7/NaV1.8 chimera DIV S1-S2; format: cell-based, human; conditions: Eo1a 10 μM; NaV1.7 with NaV1.8 DIV S1-S2; HEK293 β1/β2, transient; mean ± SEM, n = 3–6 cells
Procedure: Human Embryonic Kidney (HEK) 293 cells stably expressing human NaV1.1 to NaV1.7/β1 (SB Drug Discovery, Glasgow, United Kingdom), Chinese Hamster Ovary (CHO) cells stably expressing human NaV1.8/β3 in a tetracycline-inducible system (ChanTest, Cleveland, OH, United States), and HEK293 cells stably expressing rat transient receptor potential vanilloid 1 (TRPV1) were cultured as previously described ([Yin et al., 2020]). Human KV2.1 and NaV1.7 mutants were transiently transfected into HEK293 cells stably expressing β1/β2 using Lipofectamine 2000 (Thermo Fisher Scientific, Scoresby, VIC, Australia) and used for patch-clamp experiments 48 h after transfection. Cells were grown in an incubator at 37°C with 5% CO2 and passaged every 3–4 d (at 70–80% confluency) using TrypLE Express (Thermo Fisher Scientific).
Wild-type (WT) hNaV1.7 cDNA (NM_002,977, a gift from Dr James Cox, University College London) was subjected to in vitro site-directed mutagenesis using the QuikChange™ XL mutagenesis kit (Agilent Technologies) following the manufacturer’s instructions. NaV1.7 mutants were generated by substituting the domain II (DII) S1-S2 loop, the DII S3-S4 loop, the domain IV (DIV) S1-S2 loop and the DIV S3-S4 loop in NaV1.7 with the corresponding regions of NaV1.8. The mutations were verified by sequencing at the Brisbane node of the Australian Genome Research Facility. […]

mice = test: Spontaneous pain behaviours after intraplantar injection in mice; format: in vivo, mouse; conditions: 40 μl intraplantar, n = 3–4
Description: as §1, §2

CC[C@H](C)[C@@H]1NC(=O)[C@H](CCCNC(=N)N)NC(=O)[C@@H]2CSSC[C@@H]3NC(=O)CNC(=O)CNC(=O)[C@H](CC(C)C)NC(=O)[C@H](Cc4ccccc4)NC(=O)[C@H](Cc4c[nH]c5ccccc45)NC(=O)[C@H](CCCNC(=N)N)NC(=O)[C@@H](NC(=O)[C@@H](N)CC(=O)O)CSSC[C@H](NC(=O)[C@H](CSSC[C@@H](C(=O)N[C@@H](C)C(=O)N[C@@H](Cc4c[nH]c5ccccc45)C(=O)N[C@@H](CC(=O)O)C(=O)NCC(=O)N[C@H](C(=O)N[C@@H](Cc4ccccc4)C(N)=O)[C@@H](C)O)NC(=O)[C@H](Cc4ccc(O)cc4)NC(=O)[C@H](CCCCN)NC(=O)[C@H]([C@@H](C)CC)NC(=O)[C@H](Cc4ccc(O)cc4)NC(=O)CNC(=O)[C@H](CC(=O)O)NC1=O)NC(=O)[C@H](CC(=O)O)NC(=O)[C@H](CO)NC(=O)[C@H](CC(=O)O)NC(=O)[C@H](CCCCN)NC(=O)[C@H](CO)NC3=O)C(=O)N[C@@H](CCCCN)C(=O)N[C@@H](Cc1c[nH]cn1)C(=O)N[C@@H](CC(C)C)C(=O)N[C@@H](C)C(=O)N2 [Eo1a] (H-DCRWFLGGCSKDSDCCKHLACRIDGYIKYCAWDGTF-NH2; disulfide 2-16, 9-21, 15-30 (inferred); N-terminus assumed)
spontaneous pain (flinches) (WT mice): 392 ± 45 Flinches/15 min
spontaneous pain (flinches) (NaV1.8 KO mice): 216 ± 26 Flinches/15 min
ΔV1/2 activation [1]: −4.8 ± 0.6 mV
spontaneous pain behaviours (mice; Eo1a 1 μM): induced spontaneous pain behaviours
spontaneous pain behaviours (mice; Eo1a 10 μM, gradually subsided over 30 min): caused spontaneous pain behaviours that gradually subsided over 30 min
